The experiment relates to HIV-1 (H9IIIB strain). Description: Antiviral acute infection assay in cell culture (Spread). The class given is cell-based. The following applies: Human immunodeficiency virus 1, T-lymphoid, HIV-1 H9IIIB infection of MT-4 human T-lymphoid cells in 10% FBS; mean of at least two independent experiments. The source says: Antiviral Assays in Cell Culture (“Spread”)
Acute Infection Assay (“Spread”) data were generated using HIV-1 (H9IIIB strain) infection of MT-4 human T-lymphoid cells in 10% FBS, and according to the methods disclosed by J. P. Vacca et al, “L-735,524: An orally bioavailable human immunodeficiency virus type 1 protease inhibitor,” Proc. Natl. Acad. Sci. USA, Vol. 91, pp. 4096-4100 (April 1994).

SMILES strings stand for the structures.

One may read the EC50 as the concentration needed to bring the measured effect to its halfway point.

In the case of `O=C(CC(F)(F)F)NC[C@@H]1CO[C@H](CCc2c(F)cccc2NC(=O)CC(c2ccc(F)cc2)c2ccc(F)cc2)CN1` [Example 144, N-({(3R,6R)-6-[2-(2-{[3,3-Bis(4-fluorophenyl)propanoyl]amino}-6-fluorophenyl)ethyl]morpholin-3-yl}methyl)-3,3,3-trifluoropropanamide], the EC50 was 170 nM.
The result for `COC(=O)N[C@H](C(=O)Nc1cccc(F)c1CC[C@@H]1CN[C@H](COC(=O)NCC(F)(F)F)CO1)[C@H](c1ccccc1)c1ccc(OC)c(Cl)c1` [Example 109, (βR)-3-Chloro-N-(3-fluoro-2-{2-[(2R,5S)-5-({[(2,2,2-trifluoroethyl)carbamoyl]oxy}methyl)morpholin-2-yl]ethyl}phenyl)-Nα-(methoxycarbonyl)-O-methyl-β-phenyl-L-tyrosinamide] reads 340 nM; that for `COC(=O)N[C@H](C(=O)Nc1cccc(F)c1CC[C@@H]1CN[C@H](COC(=O)NCC(F)(F)F)CO1)[C@@H](c1ccncc1)c1ccc(F)cc1` [Example 112, (βR)-4-Fluoro-N-(3-fluoro-2-{2-[(2R,5S)-5-({[(2,2,2-trifluoroethyl)carbamoyl]oxy}methyl)morpholin-2-yl]ethyl}phenyl)-Nα-(methoxycarbonyl)-β-pyridin-4-yl-L-phenylalaninamide], 200 nM; that for `N[C@H](C(=O)Nc1cccc(F)c1CC[C@@H]1CN[C@H](COC(=O)NCC(F)(F)F)CO1)[C@@H](c1ccc(Cl)cc1)c1ccncc1F` [Example 136, (βS)-4-Chloro-β-(3-fluoropyridin-4-yl)-N-(3-fluoro-2-{2-[(2R,5S)-5-({[(2,2,2-trifluoroethyl)carbamoyl]oxy}methyl)morpholin-2-yl]ethyl}phenyl)-L-phenylalaninamide], 60 nM.
As for `NC(=O)[C@H]1CCCCC1NC(=O)OC[C@@H]1CO[C@H](CCc2c(F)cncc2NC(=O)CC(c2ccc(F)cc2)c2ccc(F)cc2)CN1` (stereo partly drawn) [Example 187, {(3S,6R)-6-[2-(3-{[3,3-bis(4-fluoro-phenyl)propanoyl]amino}-5-fluoropyridin-4-yl)ethyl]morpholin-3-yl}methyl [(2S)-2-carbamoylcyclohexyl] carbamate], the response was half-maximal at 210 nM (EC50).
The compound `COC(=O)N[C@H](C(=O)Nc1cccc(F)c1OC[C@@H]1CN[C@H](COC(N)=O)CO1)[C@@H](c1ccc(F)cc1)c1cccc(F)c1` [Example 117, (βS)—N-[2-({(2S,5S)-5-[(Carbamoyloxy)methyl]morpholin-2-yl}methoxy)-3-fluorophenyl]-4-fluoro-β-(3-fluorophenyl)-Nα-(methoxycarbonyl)-L-phenylalaninamide] had an EC50 of 18 nM.
Next, `O=C(CC(c1ccc(F)cc1)c1ccc(F)cc1)Nc1cncc(F)c1CC[C@@H]1CN[C@H](CNC(=O)OCC(F)(F)F)CO1` [Example 85, 2,2,2-trifluoroethyl ({(3R,6R)-6-[2-(3-{[3,3-bis(4-fluoro-phenyl)propanoyl]amino}-5-fluoropyridin-4-yl)ethyl]morpholin-3-yl}methyl)carbamate]: 87 nM; `O=C(CC(c1ccc(F)cc1)c1ccc(F)cc1)Nc1cncc(F)c1CC[C@@H]1CN[C@H](COC(=O)NCc2ccc(F)cc2)CO1` [Example 176, {(3S,6R)-6-[2-(3-{[3,3-bis(4-fluoro-phenyl)propanoyl]amino}-5-fluoropyridin-4-yl)ethyl]morpholin-3-yl}methyl (4-fluorobenzyl)carbamate]: 73 nM.
The result for `NC(=O)OC[C@@H]1CO[C@H](CCc2c(F)cccc2NC(=O)CC(c2ccccc2)c2ccccc2)CN1` [Example 152, [(3S,6R)-6-(2-{2-[(3,3-diphenylpropanoyl)amino]-6-fluorophenyl}ethyl)morpholin-3-yl] methyl carbamate] reads 88 nM.
`O=C(CC(c1ccc(F)cc1)c1ccc(F)cc1)Nc1cncc(F)c1CC[C@@H]1CN[C@H](COC(=O)NC2CCOC2)CO1` (stereo partly drawn) [Example 173, {(3S,6R)-6-[2-(3-{[3,3-bis(4-fluoro-phenyl)propanoyl]amino}-5-fluoropyridin-4-yl)ethyl]morpholin-3-yl}methyl tetrahydrofuran-3-ylcarbamate] showed a concentration giving a half-maximal response (EC50) of 37 nM.
The result for `COC(=O)N[C@H](C(=O)Nc1cncc(F)c1CC[C@@H]1CN[C@H](COC(=O)NCC(F)(F)F)CO1)[C@@H](c1ccc(Cl)cc1)c1ccc2c(c1)OCO2` [Example 104, (βS)-β-1,3-Benzodioxol-5-yl-4-chloro-N-(5-fluoro-4-{2-[(2R,5S)-5-({[(2,2,2-trifluoroethyl)carbamoyl]oxy}methyl)morpholin-2-yl]ethyl}pyridin-3-yl)-Nα-(methoxycarbonyl)-L-phenylalaninamide] reads 26 nM; that for `O=C(CC(c1ccc(F)cc1)c1ccc(F)cc1)Nc1cccc(F)c1CC[C@@H]1CN[C@H](CNC(=O)OCC(F)(F)F)CO1` [Example 87, 2,2,2-trifluoroethyl ({(3R,6R)-6-[2-(2-{[3,3-bis(4-fluoro-phenyl)propanoyl]amino}-6-fluorophenyl)ethyl]morpholin-3-yl}methyl) carbamate], 2200 nM; that for `COC(=O)N[C@H](C(=O)Nc1cncc(F)c1CC[C@@H]1CN[C@H](COC(=O)NCC(F)(F)F)CO1)[C@@H](c1ccc(F)cc1)c1cccc(Cl)c1` [Example 301, (βS)-3-chloro-β-(4-fluorophenyl)-N-(5-fluoro-4-{2-[(2R, 5S)-5-({[(2,2,2-trifluoroethyl)carbamoyl]oxy}methyl)morpholin-2-yl]ethyl}pyridin-3-yl)-Nα-(methoxycarbonyl)-L-phenylalaninamide], 25 nM.
The result for `O=C(CC(F)(F)F)NC[C@@H]1CO[C@H](CCc2c(F)cncc2NC(=O)CC(c2ccc(F)cc2)c2ccc(F)cc2)CN1` [Example 143, N-({(3R,6R)-6-[2-(3-{[3,3-Bis(4-fluorophenyl)propanoyl]amino}-5-fluoropyridin-4-yl)ethyl]morpholin-3-yl}methyl)-3,3,3-trifluoropropanamide] reads 40 nM.
Next, `O=C(C[C@@H](c1ccc(F)cc1)c1ccncc1F)Nc1cccc(F)c1CC[C@@H]1CN[C@H](COC(=O)NCC(F)(F)F)CO1` [Example 138, {(3S,6R)-6-[2-(2-Fluoro-6-{[(3S)-3-(4-fluorophenyl)-3-(3-fluoropyridin-4-yl)propanoyl]amino}phenyl)ethyl]morpholin-3-yl}methyl (2,2,2-trifluoroethyl)carbamate]: 31 nM.
For the compound `COc1ccc([C@H](CC(=O)Nc2cncc(F)c2CC[C@@H]2CN[C@H](COC(=O)NCC(F)(F)F)CO2)c2ccccc2)cc1Cl` [Example 179, {(3S,6R)-6-[2-(3-{[(3R)-3-(3-chloro-4-methoxyphenyl)-3-phenylpropanoyl]amino}-5-fluoropyridin-4-yl)ethyl]morpholin-3-yl}methyl (2,2,2-trifluoroethyl)carbamate], the response was half-maximal at 240 nM (EC50).
The result for `NC(=O)OC[C@@H]1CO[C@H](CCc2c(F)cccc2NC(=O)[C@@H](N)[C@@H](c2ccc(F)cc2)c2cccc(F)c2)CN1` [Example 120, (βS)—N-[2-(2-{(2R,5S)-5-[(Carbamoyloxy)methyl]morpholin-2-yl}ethyl)-3-fluorophenyl]-4-fluoro-β-(3-fluorophenyl)-L-phenylalaninamide] reads 20 nM; that for `N[C@H](C(=O)Nc1cccc(F)c1CC[C@@H]1CN[C@H](COC(=O)NCC(F)(F)F)CO1)[C@@H](c1ccc(F)cc1)c1ccc(OC(F)(F)F)cc1` [Example 219, (βR)-β-(4-fluorophenyl)-N-(3-fluoro-2-{2-[(2R,5S)-5-({[(2,2,2-trifluoroethyl)carbamoyl]oxy}methyl)morpholin-2-yl]ethyl}phenyl)-O-(trifluoromethyl)-L-tyrosinamide], 140 nM; that for `N[C@H](C(=O)Nc1cccc(F)c1CC[C@@H]1CN[C@H](COC(=O)NCCOc2ccccc2)CO1)C(c1ccc(F)cc1)c1ccc(F)cc1` [Example 222, 4-fluoro-N-(3-fluoro-2-{2-[(2R,5S)-5-({[(2-phenoxyethyl)carbamoyl]oxy}methyl)morpholin-2-yl]ethyl}phenyl)-β-(4-fluorophenyl)-L-phenylalaninamide], 53 nM.
Take `O=C(CC(c1ccc(F)cc1)c1ccc(F)cc1)Nc1cncc(F)c1CC[C@@H]1CN[C@H](COC(=O)NCc2ccno2)CO1` [Example 188, {(3S,6R)-6-[2-(3-{[3,3-bis(4-fluoro-phenyl)propanoyl]amino}-5-fluoropyridin-4-yl)ethyl]morpholin-3-yl}methyl (isoxazol-5-ylmethyl)carbamate]: the EC50 is 50 nM.
Regarding `N[C@H](C(=O)Nc1cccc(F)c1CC[C@@H]1CN[C@H](COC(=O)NCC(F)(F)F)CO1)[C@@H](c1ccc(F)cc1)C1CCOCC1` [Example 128, (βR)-4-Fluoro-N-(3-fluoro-2-{2-[(2R,5S)-5-({[(2,2,2-trifluoroethyl)carbamoyl]oxy}methyl)morpholin-2-yl]ethyl}phenyl)-β-(tetrahydro-2H-pyran-4-yl)-L-phenylalaninamide], the half-maximal effective concentration (EC50) came to 91 nM. This EC50 lies about 1.8-fold higher than the previous one.
As to `O=C(C[C@@H](c1ccc(F)cc1)c1ccccc1C(F)(F)F)Nc1cncc(F)c1CC[C@@H]1CN[C@H](COC(=O)NCC(F)(F)F)CO1` [Example 180, [(3S,6R)-6-{2-[3-fluoro-5-({(3S)-3-(4-fluorophenyl)-3-[2-(trifluoro-methyl)phenyl]propanoyl}amino)pyridin-4-yl]ethyl}morpholin-3-yl]methyl (2,2,2-trifluoroethyl)carbamate], the EC50 stood at 310 nM.
Next, `COC(=O)N[C@H](C(=O)Nc1cccc(F)c1CC[C@@H]1CN[C@H](COC(=O)NCC(F)(F)F)CO1)[C@@H](c1ccc(Cl)cc1)c1ccncc1F` [Example 134, (βS)-4-Chloro-β-(3-fluoropyridin-4-yl)-N-(3-fluoro-2-{2-[(2R,5S)-5-({[(2,2,2-trifluoroethyl)carbamoyl]oxy}methyl)morpholin-2-yl]ethyl}phenyl)-Nα-(methoxycarbonyl)-L-phenylalaninamide]: 28 nM.

The values above are taken from patent US9315475B2 (MERCK SHARP & DOHME CORP., priority 2011, dated 2016).
